Source: patent US20030013717A1, “Use of cox-2 inhibitors for constipation” (priority 2000, published 2003)

Assays:
[1] = system: Rats; test: Rat model of post-operative ileus (methylene blue meal transit); format: in vivo; settings: 3 mg/kg intravenous infusion; four hours post-gavage; eight rats; p<0.05; vehicle 49.3 cm
Experimental: Activity in Vivo: Rat Model of Post Perative Ileus
The selective COX-2 inhibitor 2-(4-ethoxy-phenyl)-3-(4-methanesulfonyl-phenyl)-pyrazolo[1,5-b]pyridazine was evaluated in a rat model of post-operative ileus. The methodology represents a modification of the procedure described by McGill et al, Gastroenterology 116: A1040 (1999).
Rats (fourteen) received 0.5 cc of skimmed milk with methylene blue by gavage. Either vehicle (six rats) or 2-(4-ethoxy-phenyl)-3-(4-methanesulfonyl-phenyl)-pyrazolo[1,5-b]pyridazine (eight rats) was then administered by intravenous infusion. Rats were sacrificed four hours post-gavage and the distance the methylene blue meal traversed the intestine measured. The pylorus was set at 0 cm. With vehicle treatment, the meal traversed 49.3+1.3 cm while with 2-(4-ethoxy-phenyl)-3-(4-methanesulfonyl-phenyl)-pyrazolo[1,5-b]pyridazine (3 mg/kg), the meal traversed 67.8±1.1 cm (p<0.05).

[2] = system: canine fundic circular muscle; test: Smooth muscle in vitro model: fundic circular muscle strips, tension change; format: cell-based; settings: test agent 10 μM; n=6-8 strips; FIG. 2
[3] = system: Beagle dogs; test: Dog model of gastric emptying (solid phase, gamma camera); format: in vivo; settings: po for three days, measured on fourth day after am dosing; cisapride 0.14 mg/kg TID, celecoxib 2.8 mg/kg BID, 8-acetyl compound 1.2 mg/kg BID; FIG. 3
Experimental: Activity in Vivo: Dog Model of Gastric Emptying
Beagle dogs were treated for three days with test agents (po administration): placebo BID; cisapride 0.14 mg/kg TID; celecoxib 2.8 mg/kg BID; or 8-acetyl-3-(4-fluoro-phenyl)-2-(4-methanesulfonyl-phenyl)-imidazo[1,2-a]pyridine 1.2 mg/kg BID. Solid phase gastric emptying was measured on the fourth day following am dosing. The same three animals were used for evaluation of each agent, thus reducing any interanimal variations.
Isotope-labeled solid food was fed to the dogs for their morning meal and animals were then placed under a gamma camera and scans performed over the 24 to 36 hours.

[4] = system: dogs; test: Dog model of lower esophageal sphincter pressure (LESP); format: in vivo; settings: 3 days treatment, measured day 4 after am dose; cisapride 0.14 mg/kg TID, celecoxib 1.2 mg/kg BID; compared to placebo; FIG. 4
Experimental: Activity in Vivo: Dog Model of Lower Esophageal Sphincter Pressure (LESP) Six adult dogs were instrumented with 14 French esophagostomy tubes. Animals were treated for 3 days with placebo (BID), cisapride (0.14 mg/kg TID) or celecoxib (1.2 mg/kg BID). On day 4 dogs received their am dose of test agent and water perfused manometry catheters were inserted through the esophagostomy tubes. Lower esophageal sphincter pressures (LESPs) were then monitored.

[5] = system: canine antrum circular muscles; test: Smooth muscle in vitro model: antral circular muscle strips, acetylcholine-induced contraction; format: cell-based; settings: test agent 10 μM; acetylcholine 1 μM; organ bath, Krebs solution; n=4-8 strips; FIG. 1
Experimental: Smooth Muscle in Vitro Model of Gastric Propulsion
Agents which stimulate antral smooth muscle activity would be expected to enhance the rate of gastric emptying by propulsion of contents in the aboral direction. By contrast, fundic relaxation could lead to delayed emptying of the stomach as the upper stomach would serve as a reservoir for gastric contents.
The effects of test agents were evaluated on strips of canine antrum circular muscles (n=4-8 strips) suspended in organ baths bathed with Krebs solution. Following establishment of baseline tension, acetylcholine (“ACh”; 1 μM), indomethacin (10 μM), or 8-acetyl-3-(4-fluoro-phenyl)-2-(4-methanesulfonyl-phenyl)-imidazo[1,2-a]pyridine (“8-Acetyl- . . . ”; 10 μM) were applied and tension changes monitored and recorded on a polygraph.

CCOc1ccc(-c2nn3ncccc3c2-c2ccc(S(C)(=O)=O)cc2)cc1 [2-(4-ethoxy-phenyl)-3-(4-methanesulfonyl-phenyl)-pyrazolo[1,5-b]pyridazine]
distance the methylene blue meal traversed the intestine (pylorus = 0 cm) [1]: 67.8±1.1 cm

CC(=O)c1cccn2c(-c3ccc(F)cc3)c(-c3ccc(S(C)(=O)=O)cc3)nc12 [8-acetyl-3-(4-fluoro-phenyl)-2-(4-methanesulfonyl-phenyl)-imidazo[1,2-a]pyridine]
relaxation / tension change of fundic circular muscle [2]: only small changes in tension
rate of solid phase gastric emptying [3]: increased the rate of gastric emptying

COc1cc(N)c(Cl)cc1C(=O)NC1CCN(CCCOc2ccc(F)cc2)CC1OC (stereo not shown) [Cisapride, cisapride]
lower esophageal sphincter pressure (LESP) [4]: increased LESP
rate of solid phase gastric emptying [3]: increased the rate of gastric emptying

COc1ccc2c(c1)c(CC(=O)O)c(C)n2C(=O)c1ccc(Cl)cc1 [indomethacin]
sensitisation of antral circular muscle to acetylcholine-induced contractions [5]: enhanced acetylcholine-induced contractions
relaxation / tension change of fundic circular muscle [2]: near complete relaxation
